From paper PMC3422259, “Additive Mixture Effects of Estrogenic Chemicals in Human Cell-Based Assays Can Be Influenced by Inclusion of Chemicals with Differing Effect Profiles” (PLoS ONE, 2012)
Entries after “also recorded” stand apart in the source; their conditions may differ. Read-outs that look alike come from different tables or passages of the source.

How the values were obtained:
[1] = system: MCF-7 cells; test: Estrogenicity assay, mitogenic endpoint (ESCREEN); details: for Signs of estrogenicity: Active at concentration: ‘Active’ = positive signal clearly distinguishable from assay variability and noise; for Signs of estrogenicity (in words): chemical screened as potential modulator, tested alone
Description: The ESCREEN assay was performed using cloned MCF-7 cells (described in [6], gifted from A. Soto, Boston) and the established ESCREEN method was followed using an adapted 96-well format. Cells were cultured in DMEM (5% FCS). For experiments, cells were seeded in clear polystyrene 96 well plates at a density of 2,500 cells/well and allowed to attach for 24 hours before washing with rinse media (phenol red-free DMEM, no supplements). […] Test chemicals were dissolved in ethanol to give stock solutions of millimolar concentrations. Test and control solutions were diluted prior to application in dosing media (phenol red free DMEM, 10% charcoal-dextran stripped FCS). The final concentration of ethanol was 0.5% in test and control wells. […] At all stages, media removal from cells was carried out gently and in a controlled fashion by use of an electronic multichannel pipette set to the lowest speed possible. Controls were run as eight replicate wells per plate and compounds were tested in a dilution series comprising eight concentrations, each concentration tested in two replicate wells per plate. The plate layout was designed to reduce variation due to evaporation and spreading of test chemicals, and had been previously optimised in the laboratory. After application of test solutions, plates were incubated for 120 hours before fixation with 10% trichloroacetic acid and sulforhodamine B (SRB) staining to measure protein and allow the indirect quantification of cell number.
(§1) Experiments were performed on different days meaning that results for different dilution series and different batches of the test chemicals were obtained on different days. Each single chemical was tested in three or more independent experiments. Use of normalisation meant that data from different experiments could be reliably combined and compared, as discussed previously. Data was expressed relative to the positive control, rather than as fold change from the vehicle response, for two reasons.
(§2) Results from regression analysis for each test chemicals were used to predict the CA effect for fixed-ratio mixtures designed on 1) equi-effective concentrations (balanced design), 2) possible human serum levels (non-balanced design). The original mathematical formulation of CA that defines for a mixture composed of n components with concentration c1 of the first component, c2 of the second component, and cn for the n-th component a combination effect X is [drawing 1] (1) Here, ECX1, ECX1 …, ECXn are the concentrations of the individual components that on their own produce the same effect X as the mixture, [15] The quotients cn/ECXn are called toxic units and scale all compounds in the mixture relative to their toxicity. They can be interpreted as the contribution of the compound to the total mixture concentration that is expected to produce the mixture effect X. According to equation 1, a mixture effect for a pre-defined effect level X is described only implicitly. However, if the individual concentrations ci are expressed as relative fractions pi to the total mixture concentration ECxMix, then equation 1 can be re-arranged to [drawing 2] (2) which allows the direct calculation of the mixture concentration that is expected to produce the mixture effect X. To form a prediction curve, equation 2 is iterated through for various effect levels resulting in sets of effects and their associated predicted mixture concentration which are then plotted to produce a graph of the effect prediction.
Both equations 1 and 2 require knowledge of the concentration of each mixture component that on its own produces the effect magnitude under consideration. For this reason, these equations cannot be used for predicting mixture effects that exceed the maximal effect of the least efficacious component, because those effect concentrations cannot be defined.

[2] = system: MCF-7 cells; test: Modulation studies (ESCREEN only): effect of potential modulators on the response evoked by a reference mixture of estrogens (REFmix); format: cell-based, human; details: for Modulation of the REFmix effect (in words) / Concentration at which suppression of the ESCREEN response to REFmix began: ESCREEN; for Observed modulation: ESCREEN response to REFmix (Mixture 3d, ca. 50% effect), screening, one experiment; for Concentration at which suppression of the ESCREEN response to REFmix began: individual modulator screening
Description: Modulation studies comprised screening of individual modulators in low power experiments accompanied by parallel testing of an equimolar mixture of all modulators. This combination of low power screening and mixture testing provides the opportunity to assess a high number of chemicals (16 in this case) without a prohibitive amount of experimental effort. In this case the effects of 16 modulators could be evaluated using a total of 19 experimental plates (16 for screening and 3 for mixture testing).
To normalize for small changes in the absolute value of the positive control and the control response to the selected REFmix concentration, the response evoked by the REFmix control on each plate was defined as the 50% effect and all modulator study results are normalized to that value.
A mixture of modulators (MODmix) was also tested and was composed with a fixed ratio of equimolar concentrations, since the activity of each modulator was not known at the time of designing the mixture.
In these modulator studies, we examined 16 single chemicals (listed in Table 7) and an equimolar mixture of all 16 components for their ability to modulate the effects of a reference mixture (REFmix) which contained 14 food additives and contaminants (Table 1, Mixture 3d). […] Single chemicals were tested individually in single experiments (screening) and then a mixture composed using a fixed ratio of equal molarities was subjected to repeated testing.
Figure 5 Results of modulation studies. […] Experimental results are shown as grey circles representing each replicate (duplicate testing within the assay) and obtained in three independent (A) or one (B–Q) experiment (s). Experimental results were normalized by setting the value observed for the REFmix alone, the concentration of which was selected to evoke a […] of ca. 50%, to 0.5. The positive control values (black circles, eight replicates per experimental plate, 25 nM estradiol) are indicated adjacent to the y-axis. […] A black line indicates a LOESS spline fit to the data (A–Q) and a grey line indicates linear regression fit to the data for individual modulators (B–Q). A vertical dotted line is drawn at a mixture concentration of 1.6 µM (A) or at the concentration of each modulator present at that mixture concentration (0.1 uM, B–Q). Visual inspection of the individual modulator results (B–Q) was used to identify possible modulation, i.e. when the experimental data appears to deviate from the linear regression, or when the linear regression is not horizontal, and when the magnitude of the modulation is outside the variation expected in the assay.

[3] = system: T47D-KBluc cells; test: cells; details: ERLUX
Description: T47D-KBluc cells were obtained from the ATCC and the protocol established by the depositing authors was followed. Cells were routinely grown in RPMI media (with 10% foetal calf serum (FCS)). For seven days prior to experiments, cells were maintained in low estrogen conditions by the use of pre-assay media (RPMI, 10% charcoal-dextran stripped FCS, no antibiotics). For experiments, cells were seeded in white polystyrene 96 well plates at a density of 10,000 cells/well and allowed to attach for 24 hours before removal of media, and application of test chemicals. Test chemicals were dissolved in ethanol to give stock solutions of millimolar concentrations. Test and control solutions were obtained by dilution of ethanolic stocks in dosing media (phenol red-free RPMI, 5% charcoal-dextran stripped FCS, no antibiotics), and in all cases the final concentration of ethanol was 0.5%. The positive control was 1 nM estradiol. Positive and vehicle controls were run as eight replicate wells per plate, and compounds were tested in a dilution series comprising eight concentrations, each concentration tested in triplicate. As recommended by Wilson et al. two additional controls were also included on each plate: 1) vehicle control plus an antiestrogen, ICI 182,780 (1 µM), and 2) positive control plus ICI 182,780 (1 µM). […] A crude measure of toxicity was provided by comparing values for treatments that were not positive, with the value of the vehicle control. […] 24 hours after application of test and control solutions, a volume of Steady-Glo assay reagent (Promega) equal to the volume of culture media was added and plates were incubated for ten minutes, with shaking, to allow for cell lysis. Plates were then loaded into a plate reader (FLUOstar Optima, BMG Labtech) and incubated for a further ten minutes in the dark, followed by measurement of luminescence. To reduce variation, the temperature of the plate reader chamber was maintained at 27°C throughout.
as §1
Effect concentrations (ECx) were defined relative to the effects of the estradiol concentration used as the positive control, for example EC50 is the concentration producing an effect of 50% of the positive control (estradiol, 1 nM (ERLUX) or 25 nM (ESCREEN)).
as §2, with “implicitly.” for “implicitly. However, if the individual concentrations ci are expressed as relative fractions pi to the total mixture concentration ECxMix, then equation 1 can be re-arranged to [drawing 2] (2) which allows the direct calculation of the mixture concentration that is expected to produce the mixture effect X. To form a prediction curve, equation 2 is iterated through for various effect levels resulting in sets of effects and their associated predicted mixture concentration which are then plotted to produce a graph of the effect prediction.”

Row | Compound | Modulation of the REFmix effect (in words) [2] | Observed modulation [2] | Signs of toxicity (in words) ([1]; ESCREEN) | Signs of estrogenicity (in words) ([1]; ESCREEN) | other results
1 | CCCCOC(=O)c1ccccc1C(=O)OCc1ccccc1 [BBP, Butyl benzyl phthalate] | no indication of negative modulation | None |  |  | Signs of toxicity at the highest concentrations (in words) ([1]; ESCREEN, highest concentrations shown in Figure 2, may indicate toxicity): decline in response; Signs of toxicity: Toxic at concentration ([1]; ESCREEN, reduction in signal at concentrations above those showing estrogenicity): Toxic at 100 µM; Signs of estrogenicity: Active at concentration ([1]; ESCREEN): Active at 1 µM or higher; Estrogenicity when tested alone (in words) [3]: estrogenic; Concentration at which estrogenic activity seen ([3]; and above): 0.1 to 1 µM; Toxicity (in words) ([3]; crude measure within the assay / dose-response analysis): evidence for toxicity
2 | COc1ccc(O)c(C(C)(C)C)c1 [BHA, Butylated hydroxyl anisole] | possible negative modulation | Possible negative | None | None | 
3 | Cc1cc(C(C)(C)C)c(O)c(C(C)(C)C)c1 [BHT, Butylated hydroxytoluene] | possible negative modulation | Possible negative | None | None | 
4 | [Cl][Cd][Cl] [CdCl2, Cadmium chloride] | clear negative modulation; also recorded: showed negative modulation | Clear negative |  | None | Concentration at which suppression of the ESCREEN response to REFmix began [2]: around 10 nM; Suppression of the REFmix effect ([2]; at 10 µM): 80%
5 | Cc1cnc2ccc3c(nc(N)n3C)c2n1 [MeIQx, 2-Amino-3,8-dimethyl imidazo [4,5-f] quinoxaline] | no indication of negative modulation | None | None | None | 
6 | Clc1ccc(-c2ccccc2Cl)cc1 [PCB #8, 2,4′-dichlorobiphenyl (PCB #8)] | no indication of negative modulation | None | None | None | 
7 | Clc1ccc(-c2cc(Cl)c(Cl)c(Cl)c2)cc1Cl [PCB #126, 3,3′,4,4′,5-pentachlorobiphenyl (PCB #126)] | clear negative modulation | Clear negative | None |  | Signs of estrogenicity: Active at concentration ([1]; ESCREEN): Active at 10 µM or higher; Concentration at which suppression of the ESCREEN response to REFmix began [2]: 1–10 nM and around 10 nM; Suppression of the ESCREEN response to REFmix ([2]; at 100 nM, plateau at that level up to 10 µM): 50%
8 | Clc1cc(Cl)c(-c2cc(Cl)c(Cl)cc2Cl)cc1Cl [PCB #153, 2,2′,4,4′,5,5′-hexachloro biphenyl (PCB #153)] | no indication of negative modulation | None | None | None | 
9 | Clc1cc(Cl)c(-c2cc(Cl)c(Cl)c(Cl)c2Cl)cc1Cl [PCB #180, 2,2′,3,4,4′,5,5′-heptachloro biphenyl (PCB #180)] | no indication of negative modulation | None |  | None | Signs of toxicity (in words) [1]: None
10 | O=[N+]([O-])[O-].O=[N+]([O-])[O-].[Pb+2] [Pb(NO3)2, Lead nitrate] | possible negative modulation | Possible negative | None | None | 
11 | Cn1c(N)nc2ncc(-c3ccccc3)cc21 [PhIP, 2-amino-1-methyl-6-phenylimidazo [4,5-b] pyridine] | possible negative modulation | Possible negative | None | None | 
